{
  "source": "patent US7126676B2",
  "about": "“Spectral analysis of light scattered from clotting blood” (priority 2002, dated 2006)",
  "key": {"[1]": {"system": "clotting native whole blood", "settings": "for Ratio of Post-treatment to Pre-treatment Value of Logistic Parameter B: two hours after ingestion, same subject"}, "[2]": {"settings": "rofecoxib-treated arm compared with naproxen; cited from earlier work"}, "[3]": {"system": "clotting", "settings": "cited from earlier work"}},
  "note": "Like-named read-outs stand apart in the source and are kept apart here.",
  "data": [
    {"smiles": "COc1ccc2cc([C@H](C)C(=O)O)ccc2c1", "note": "[Naproxen]", "values": [
      {"measurement": "Ratio of Post-treatment to Pre-treatment Value of Logistic Parameter B", "setting": "[1]; 470 nm, Naproxen 600 mg single dose", "result": 1.63},
      {"measurement": "Ratio of Post-treatment to Pre-treatment Value of Logistic Parameter B", "setting": "[1]; 550 nm, Naproxen 600 mg single dose", "result": 0.03},
      {"measurement": "Ratio of Post-treatment to Pre-treatment Value of Logistic Parameter B", "setting": "[1]; 610 nm, Naproxen 600 mg single dose", "result": 0.34},
      {"measurement": "Ratio of Post-treatment to Pre-treatment Value of Logistic Parameter B", "setting": "[1]; 700 nm, Naproxen 600 mg single dose", "result": 0.28},
      {"measurement": "Effect on clotting as determined by the invention, in words", "setting": "[1]; at 470 nm", "result": "aspirin-like effect"},
      {"measurement": "Effect on clotting as determined by the invention, in words", "setting": "[1]; at the other wavelengths (550, 610, 700 nm)", "result": "celecoxib-like effect"}
    ]},
    {"smiles": "CC(=O)Oc1ccccc1C(=O)O", "note": "[Aspirin]", "values": [
      {"measurement": "Ratio of Post-treatment to Pre-treatment Value of Logistic Parameter B", "setting": "[1]; 470 nm, Aspirin 325 mg single dose", "result": 4.48},
      {"measurement": "Ratio of Post-treatment to Pre-treatment Value of Logistic Parameter B", "setting": "[1]; 550 nm, Aspirin 325 mg single dose", "result": 1.45},
      {"measurement": "Ratio of Post-treatment to Pre-treatment Value of Logistic Parameter B", "setting": "[1]; 610 nm, Aspirin 325 mg single dose", "result": 2.18},
      {"measurement": "Ratio of Post-treatment to Pre-treatment Value of Logistic Parameter B", "setting": "[1]; 700 nm, Aspirin 325 mg single dose", "result": 1.85}
    ]},
    {"smiles": "Cc1ccc(-c2cc(C(F)(F)F)nn2-c2ccc(S(N)(=O)=O)cc2)cc1", "note": "[Celecoxib]", "values": [
      {"measurement": "Ratio of Post-treatment to Pre-treatment Value of Logistic Parameter B", "setting": "[1]; 470 nm, Celecoxib 400 mg single dose", "result": 0.087},
      {"measurement": "Ratio of Post-treatment to Pre-treatment Value of Logistic Parameter B", "setting": "[1]; 550 nm, Celecoxib 400 mg single dose", "result": 0.154},
      {"measurement": "Ratio of Post-treatment to Pre-treatment Value of Logistic Parameter B", "setting": "[1]; 610 nm, Celecoxib 400 mg single dose", "result": 0.055},
      {"measurement": "Ratio of Post-treatment to Pre-treatment Value of Logistic Parameter B", "setting": "[1]; 700 nm, Celecoxib 400 mg single dose", "result": 0.107}
    ]},
    {"smiles": "CS(=O)(=O)c1ccc(C2=C(c3ccccc3)C(=O)OC2)cc1", "note": "[rofecoxib]", "values": [
      {"measurement": "Incidence of thrombotic events", "setting": "[2]", "result": "higher incidence of thrombotic events"},
      {"measurement": "Effect on clotting as measured by routine techniques", "setting": "[3]", "result": "Neither rofecoxib nor celecoxib has any effect on clotting"}
    ]}
  ]
}
